Some test systems named below: HS 578T breast; MDA-MB-231 breast; HCT-116 colon; SF-539 CNS; A549 NSCLC; SNB-19 CNS; MDA-MB-435; MCF7 breast; DLD-1 colon; LXFL 529 NSCLC; DMS 273 small cell lung; SNB-78 CNS; M19-MEL melanoma; XF 498 CNS.
Common to all, as to assay: NCI tumour cell line growth inhibition, 48 h

SMILES strings stand for the structures.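 In this assay, cells in 96-well plates receive the compound at five concentrations for 48 hours. Endpoints are linearly interpolated between the surrounding concentrations. TGI: total growth inhibition.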

On to `CCOC(=O)/C=C(/C(=O)OCC)n1ccc(=O)n(Cc2cnnn2COCCOC(C)=O)c1=O`, for which the TGI with HS 578T breast was 56.7 µM; with MDA-MB-231 breast, 38.7 µM; in the experiment with HCT-116 colon it was 45.8 µM; in the experiment on SF-539 CNS, 25.7 µM; in the experiment with A549 NSCLC it was over 100 µM; with SNB-19 CNS it was over 31.6 µM. The TGI came out at 32.5 µM in the experiment with MDA-MB-435 and 27.7 µM in the experiment with MCF7 breast.

For `O=C1CC(CC(=O)c2ccc(Br)cc2)C(=O)/C1=C(/O)c1ccc(Br)cc1` (configuration not stated), the TGI in the experiment on HS 578T breast, in the experiment with MDA-MB-231 breast, with HCT-116 colon, in the experiment on SF-539 CNS, in the experiment on A549 NSCLC and in the experiment on SNB-19 CNS was over 100 µM each time. For the same molecule, the TGI in the experiment on MDA-MB-435 and in the experiment with MCF7 breast was over 100 µM throughout.

For the molecule `CC1C2C=C(O)C(=O)C(C2=O)C1c1ccccc1` (configuration not stated), the TGI in the experiment on DLD-1 colon, in the experiment on LXFL 529 NSCLC, with DMS 273 small cell lung, in the experiment on SF-539 CNS, with SNB-78 CNS and in the experiment with A549 NSCLC was over 100 µM in each case. Besides, the TGI with M19-MEL melanoma and with SNB-19 CNS was over 100 µM in each case.

As for `COC1CC(OC2C(C)OC(OC3C(C)OC(OC4C(C)OC(O[C@H]5CC[C@@]6(C)C(=CC[C@]7(O)[C@@H]6C[C@@H](OC(C)=O)[C@@]6(C)[C@]7(O)CC[C@@]6(O)C(C)=O)C5)CC4OC)CC3OC)CC2OC)OC(C)C1O` (some centres not stated), the TGI in the experiment on HS 578T breast, in the experiment with MDA-MB-231 breast, in the experiment on HCT-116 colon, in the experiment on SF-539 CNS, with A549 NSCLC and in the experiment on SNB-19 CNS was over 25 µM in each case. Further, the TGI in the experiment with MDA-MB-435 and with MCF7 breast was over 25 µM each time.

As to `Fc1ccc2c3c([nH]c2c1)CCN(Cc1ccccc1)C3`, the TGI in the experiment with HS 578T breast turned out to be 30.8 µM; in the experiment on MDA-MB-231 breast, 43.8 µM; with HCT-116 colon it was 32.9 µM; in the experiment with SF-539 CNS, 39 µM; in the experiment on A549 NSCLC it was 45.5 µM; in the experiment on SNB-19 CNS, 30.8 µM. Also, the TGI was found to be 34.3 µM in the experiment with MDA-MB-435 and 31.3 µM in the experiment on MCF7 breast.

Take `CC(C)C(OC(=O)c1ccc(NCC2=CC(=O)C=CC2=O)cc1)C(C)C`: the TGI in the experiment with HS 578T breast is 16.7 µM; with MDA-MB-231 breast it was 31.8 µM; with HCT-116 colon, 24.6 µM; in the experiment with SF-539 CNS, 4.1 µM; in the experiment on A549 NSCLC, over 73.1 µM; with SNB-19 CNS it was 53.5 µM. For the same molecule, the results for the TGI with MDA-MB-435 and in the experiment on MCF7 breast were 17.9 µM and 22.5 µM, respectively.

As for `COc1cccc(C2c3cc4c(cc3OC(NNS(=O)(=O)c3ccc(C)cc3)C2C)OCO4)c1OC` (configuration not stated), the TGI with HS 578T breast worked out at 21.1 µM; in the experiment on MDA-MB-231 breast, 27.6 µM; in the experiment on HCT-116 colon, 4.56 µM; in the experiment with SF-539 CNS, 11.9 µM; in the experiment with A549 NSCLC, 11.4 µM; in the experiment on SNB-19 CNS, 86.6 µM. The TGI is over 100 µM in the experiment on MDA-MB-435 and 79.5 µM with MCF7 breast.

Consider `O=[S@]1c2ccc3ccccc3c2N[C@@H]2[C@H]1[C@H]1C=C[C@@H]2C1`, for which the TGI in the experiment on HS 578T breast, in the experiment with MDA-MB-231 breast, in the experiment on HCT-116 colon, in the experiment with SF-539 CNS, in the experiment on A549 NSCLC and with SNB-19 CNS was over 100 µM throughout. Also, the results for the TGI with MDA-MB-435 and in the experiment with MCF7 breast were 99.6 µM and over 100 µM, respectively.

`O=Cc1cc(C(=O)OCc2ccccc2)n(S(=O)(=O)c2ccccc2)c1`: the TGI in the experiment on HS 578T breast was 49.2 µM; in the experiment with MDA-MB-231 breast, 78.1 µM; in the experiment on HCT-116 colon, 25.7 µM; in the experiment with SF-539 CNS, 28.6 µM; with A549 NSCLC, 68.7 µM; in the experiment on SNB-19 CNS, over 100 µM. For the same molecule, the values for the TGI in the experiment with MDA-MB-435 and with MCF7 breast were 12.9 µM and 67.2 µM, respectively.

`Cc1c(N=C/C=C/c2ccccc2)c(=O)n(-c2ccccc2)n1C`: the TGI in the experiment on HS 578T breast was 69.8 µM; with MDA-MB-231 breast, over 100 µM; in the experiment on HCT-116 colon it was 29.2 µM; in the experiment on SF-539 CNS, 64.4 µM; with A549 NSCLC, over 100 µM; with SNB-19 CNS, over 100 µM. Besides, the results for the TGI in the experiment on MDA-MB-435 and in the experiment with MCF7 breast were over 100 µM and 60.5 µM, respectively.

Regarding `CSCSCC(CO)NC(=O)/C(C)=C\c1c(C)[nH]c(=O)[nH]c1=O` (configuration not stated), the TGI in the experiment on DLD-1 colon, in the experiment on DMS 273 small cell lung, in the experiment on HCT-116 colon, in the experiment with SF-539 CNS, with SNB-78 CNS and in the experiment with A549 NSCLC was over 250 µM each time. Besides, the TGI is over 250 µM with M19-MEL melanoma, over 250 µM in the experiment on SNB-19 CNS, over 250 µM with MCF7 breast and over 224 µM in the experiment with XF 498 CNS.

Consider `COc1ccc2c(c1)/C(=C\c1c(Cl)[nH]c3ccccc13)C(=O)N2`, for which the TGI in the experiment on HS 578T breast came out at 9.88 µM; with MDA-MB-231 breast it was 26.5 µM; with HCT-116 colon, 10.8 µM; with SF-539 CNS, 12.5 µM; in the experiment with A549 NSCLC it was 19 µM; in the experiment on SNB-19 CNS, 19.3 µM. In addition, the TGI turned out to be 3.82 µM with MDA-MB-435 and 13.7 µM in the experiment with MCF7 breast.

Take `COc1ccc2c(c1)CCCN1CCc3ccccc3C21` (configuration not stated): the TGI is 94 µM with HS 578T breast; 72.2 µM in the experiment with MDA-MB-231 breast; 72.1 µM in the experiment on HCT-116 colon; 75.8 µM in the experiment with SF-539 CNS; over 100 µM in the experiment with A549 NSCLC; over 100 µM with SNB-19 CNS. Further, the TGI with MDA-MB-435 is 43.2 µM; in the experiment with MCF7 breast, over 100 µM.

Consider `O=[N+]([O-])c1ccc(-n2nc3ccc4c(no[n+]4[O-])c3n2)cc1`, for which the TGI in the experiment on HS 578T breast, with MDA-MB-231 breast, in the experiment with HCT-116 colon, with SF-539 CNS, in the experiment on A549 NSCLC and in the experiment with SNB-19 CNS was over 100 µM each time. Moreover, the TGI in the experiment on MDA-MB-435 and in the experiment on MCF7 breast was over 100 µM in each case.

`O=C(NNC(=S)NC1CCCCC1)C12CC3CC(CC(C3)C1)C2`: the TGI with HS 578T breast, with MDA-MB-231 breast, in the experiment on HCT-116 colon, in the experiment with SF-539 CNS, in the experiment with A549 NSCLC and with SNB-19 CNS was over 100 µM each time. The TGI with MDA-MB-435 and in the experiment on MCF7 breast was over 100 µM throughout.

Source of the values: PubChem BioAssay (NCI).
